One series addresses T1, Axl (Homo sapiens, UniProt P30530).
T1 construct: endogenous in cells; host or cells: HeLa cells
T1 sequence (P30530 26-894): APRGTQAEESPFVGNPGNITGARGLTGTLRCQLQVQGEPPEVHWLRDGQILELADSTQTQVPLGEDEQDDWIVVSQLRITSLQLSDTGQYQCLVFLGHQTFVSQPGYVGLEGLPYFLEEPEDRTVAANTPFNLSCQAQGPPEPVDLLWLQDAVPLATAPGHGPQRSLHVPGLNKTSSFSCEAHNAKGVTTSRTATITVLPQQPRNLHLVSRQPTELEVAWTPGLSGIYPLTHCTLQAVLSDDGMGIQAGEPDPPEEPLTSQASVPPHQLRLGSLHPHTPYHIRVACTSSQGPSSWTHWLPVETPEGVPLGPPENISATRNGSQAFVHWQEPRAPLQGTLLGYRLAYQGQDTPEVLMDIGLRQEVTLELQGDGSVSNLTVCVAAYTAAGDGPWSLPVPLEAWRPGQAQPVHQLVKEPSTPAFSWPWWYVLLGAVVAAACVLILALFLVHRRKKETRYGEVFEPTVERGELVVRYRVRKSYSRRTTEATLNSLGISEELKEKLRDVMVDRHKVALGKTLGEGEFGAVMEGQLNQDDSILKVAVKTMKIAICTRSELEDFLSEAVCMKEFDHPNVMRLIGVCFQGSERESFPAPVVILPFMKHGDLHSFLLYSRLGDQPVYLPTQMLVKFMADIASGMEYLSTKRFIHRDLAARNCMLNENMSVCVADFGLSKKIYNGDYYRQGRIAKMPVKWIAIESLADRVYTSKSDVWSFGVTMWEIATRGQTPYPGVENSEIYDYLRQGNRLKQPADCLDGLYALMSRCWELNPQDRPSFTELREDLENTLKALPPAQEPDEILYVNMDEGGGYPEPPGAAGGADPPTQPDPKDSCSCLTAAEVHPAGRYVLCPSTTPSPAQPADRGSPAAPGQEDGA
Briefly: Phospho-Akt in-cell Western assay (inhibition of Axl activity). Type of series: cell-based. The essentials:
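HeLa cells on poly-L-lysine, starved 24 h in 0.5% FCS DMEM with Axl/Fc 500 ng/mL, pre-treated with compound 1 h at 37° C. Axl stimulated 5 min by anti-Axl/anti-mouse antibody cross-linking. Fixed cells probed with anti-phospho-Akt and HRP secondary, chemiluminescence read.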

The mark [1] stands for this setting: inhibition of Axl activity, Table 1.
The mark [2] stands for this setting: Table 4, Hela cells, Axl antibody cross-linking stimulation, phospho-Akt chemiluminescence.
[3] abbreviates: Table 5, Hela cells, Axl antibody cross-linking stimulation, phospho-Akt chemiluminescence.

We go through 25 compounds from patent US8389557B2, “Triazole derivatives useful as Axl inhibitors” (Rigel Pharmaceuticals, Inc., priority 2005, dated 2013).

For orientation: IC50 means the concentration that gives 50% inhibition. High values mean lower potency, low ones higher potency. As a reminder, the melting point is the temperature of the solid-liquid transition.

Counter-ions that a name gives are not always drawn.

For the compound `Cc1cccc(C(=O)n2nc(Nc3cccc(OCC#N)c3)nc2N)c1` [(Ia-9), 5-amino-3-[3-(cyanomethoxy)phenylamino]-1-(3-(methyl)phenyl)carbonyl-1H-1,2,4-triazole], the melting point was 220 to 224.4 °C. Also, the IC50 on Axl (setting [1]) was above 20 µM.
Consider `CC(C)Oc1cccc(C(=O)n2nc(Nc3cccc(OCc4ccccc4)c3)nc2N)c1` [(Ia-17), 5-amino-3-[3-(benzyloxy)phenylamino]-1-(3-(iso-propoxy)phenyl)carbonyl-1H-1,2,4-triazole], for which the melting point lay within 131.1 to 132.4 °C. On Axl (setting [1]), this compound yielded an IC50 above 20 µM.
`Cc1ccc(C(=O)n2nc(Nc3cccc(OCC#N)c3)nc2N)cc1` [(Ia-5), 5-amino-3-[3-(cyanomethoxy)phenylamino]-1-(4-(methyl)phenyl)carbonyl-1H-1,2,4-triazole] came in with a melting point of 236 to 241 °C.
Turning to `Cc1ccccc1C(=O)n1nc(Nc2cccc(OCC#N)c2)nc1N` [(Ia-8), 5-amino-3-[3-(cyanomethoxy)phenylamino]-1-(2-(methyl)phenyl)carbonyl-1H-1,2,4-triazole], the melting point fell in the range of 204.5 to 207.9 °C. Further, the IC50 at Axl (setting [1]) was above 20 µM.
The compound `CC(C)Oc1ccc(C(=O)n2nc(Nc3ccc(OCc4ccccc4)cc3)nc2N)cc1` [(Ia-10), 5-amino-3-[4-(benzyloxy)phenylamino]-1-(4-(iso-propoxy)phenyl)carbonyl-1H-1,2,4-triazole] returned a melting point of 79 to 81 °C. The IC50 against Axl (setting [1]) is above 20 µM.
The matching figures for `Cc1cccc(C(=O)n2nc(Nc3cccc(OCC(=O)N4CCN(C(=O)OC(C)(C)C)CC4)c3)nc2N)c1` [(Ia-19)]: 206 to 208 °C and above 20 µM.
With `Nc1nc(Nc2ccccc2)n(C(=O)/C=C/c2ccco2)n1` [compound 140, 3-amino-5-phenylamino-1-(trans-2-(furan-2-yl)ethenyl)carbonyl-1H-1,2,4-triazole], the melting point is 190 to 193 °C. Further, the IC50 against Axl (setting [2]) is above 20 µM.
Compound `Nc1nc(Nc2cccc(OCCN3CCOCC3)c2)nn1C(=O)c1ccccc1` (as salt: salt) [(Ia-26), 5-amino-3-[3-[2-(morpholin-4-yl)ethoxy]phenylamino]-1-phenylcarbonyl-1H-1,2,4-triazole, hydrogen chloride salt] yielded a melting point of 236.6 to 242.1 °C.
Regarding `Cc1cccc(C(=O)n2nc(Nc3cccc(OCC(=O)NCCN4CCOCC4)c3)nc2N)c1` [(Ia-18), 5-amino-1-(3-methylphenyl)carbonyl-3-[3-[2-(4-morpholinyl)ethylaminocarbonylmethoxy]phenyl]amino-1H-1,2,4-triazole], the melting point fell in the range of 145 to 147 °C. The IC50 against Axl (setting [1]) lay within 1 to 10 µM.
Compound `CC(C)Oc1ccc(C(=O)n2nc(Nc3cccc(OCc4ccccc4)c3)nc2N)cc1` [(Ia-25), 5-amino-3-[3-(benzyloxy)phenylamino]-1-(4-(iso-propoxy)phenyl)carbonyl-1H-1,2,4-triazole] displayed a melting point of 188.7 to 189.9 °C. This compound also returned an IC50 at Axl (setting [1]) above 20 µM.
Regarding `Cc1cccc(C(=O)n2nc(Nc3cccc(OCC(=O)N4CCNCC4)c3)nc2N)c1` [(Ia-20), 5-amino-1-(3-methylphenyl)carbonyl-3-[3-(piperazin-4-ylcarbonylmethoxy)phenyl]amino-1H-1,2,4-triazole], the melting point is 169 to 171 °C. On Axl (setting [1]), the IC50 fell in the range of 1 to 10 µM.
Turning to `CC(C)Oc1ccc(C(=O)n2nc(Nc3ccc(O)cc3)nc2N)cc1` [(Ia-11), 5-amino-3-[4-(hydroxy)phenylamino]-1-(4-(iso-propoxy)phenyl)carbonyl-1H-1,2,4-triazole], the melting point is 229 to 234 °C. On Axl (setting [1]), the IC50 is 1 to 10 µM.
`CC(C)Oc1ccc(C(=O)n2nc(Nc3cccc(O)c3)nc2N)cc1` [(Ia-13), 5-amino-3-[3-(hydroxy)phenylamino]-1-(4-(iso-propoxy)phenyl)carbonyl-1H-1,2,4-triazole] gave a melting point of 204.2 to 211.9 °C. The IC50 at Axl (setting [1]) was in the range of 1 to 10 µM.
The compound `CNCc1cc2cc(Nc3nc(N)n(C(=O)c4cccc(C)c4)n3)ccc2o1` [(Ia-29), 5-amino-3-(2-((methylamino)methyl)benzofuran-5-yl)amino-1-(3-methylphenyl)carbonyl-1H-1,2,4-triazole] came in with a melting point of 128 to 131 °C. Also, the IC50 on Axl (setting [3]) was below 1 µM.
Consider `CC(C)Oc1cccc(C(=O)n2nc(Nc3cccc(O)c3)nc2N)c1` [(Ia-16), 5-amino-3-[3-(hydroxy)phenylamino]-1-(3-(iso-propoxy)phenyl)carbonyl-1H-1,2,4-triazole], for which the melting point was 211.3 to 214.8 °C. At Axl (setting [1]), this compound yielded an IC50 of 1 to 10 µM.
In turn, `CC(C)Oc1ccc(C(=O)n2nc(Nc3ccc(OCC#N)cc3)nc2N)cc1` [(Ia-12), 5-amino-3-[4-(cyanomethoxy)phenylamino]-1-(4-(iso-propoxy)phenyl)carbonyl-1H-1,2,4-triazole] displayed a melting point of 182.9 to 186.1 °C. Further, the half-maximal inhibitory concentration (IC50) at Axl (setting [1]) is 1 to 10 µM.
`CC(C)Oc1ccc(C(=O)n2nc(Nc3cccc(OCCN4CCOCC4)c3)nc2N)cc1` [(Ia-22)] yielded a melting point of 152 to 153.7 °C. In addition, at Axl (setting [1]), the IC50 is 1 to 10 µM.
`CC(C)Oc1ccc(C(=O)n2nc(Nc3cccc(OCCC4OCCO4)c3)nc2N)cc1` [(Ia-24), 5-amino-3-[3-[2-(1,3-dioxolan-2-yl)ethoxy]phenylamino]-1-(4-(iso-propoxy)phenyl)carbonyl-1H-1,2,4-triazole] yielded a melting point of 144.4 to 145.4 °C. On Axl (setting [1]), this compound gave an IC50 of 1 to 10 µM.
As for `Cc1cccc(C(=O)n2nc(Nc3cccc(OCCN4CCOCC4)c3)nc2N)c1` [(Ia-27)], the melting point fell in the range of 60 to 63 °C. On Axl (setting [1]), the IC50 was 1 to 10 µM.
Turning to `C=CCN(C)Cc1cc2cc(Nc3nc(N)n(C(=O)c4cccc(C)c4)n3)ccc2o1` [(Ia-28), 5-amino-3-(2-((allyl(methyl)amino)methyl)benzofuran-5-yl)amino-1-(3-methylphenyl)carbonyl-1H-1,2,4-triazole], the melting point is 128 to 131 °C. Also, on Axl (setting [3]), the IC50 lay within 1 to 10 µM.
The compound `Nc1nc(Nc2ccccc2)nn1C(=O)/C=C/c1ccco1` [compound 141, 5-amino-3-phenylamino-1-(trans-2-(furan-2-yl)ethenyl)carbonyl-1H-1,2,4-triazole] came in with a melting point of 212 to 216 °C. This compound registered an IC50 against Axl (Table 3, Hela cells, Axl antibody cross-linking stimulation, phospho-Akt chemiluminescence) of 1 to 10 µM.
In turn, `CSc1ccc(C(=O)n2nc(Nc3ccc4c(c3)OCCO4)nc2N)cc1` [compound 237, 5-amino-3-(1,4-benzodioxan-6-yl)amino-1-(4-thiomethylphenyl)carbonyl-1H-1,2,4-triazole] displayed an IC50 against Axl (setting [1]) of 1 to 10 µM.
Consider `CC1(C)Oc2ccc(C(=O)n3nc(N)nc3Nc3ccc(N4CCOCC4)cc3)cc2NC1=O` [compound 69, 3-amino-1-(2,2-dimethyl-2H-benzo[b][1,4]oxazin-3(4H)-on-6-yl)carbonyl-5-(4-(morpholin-4-yl)phenylamino)-1H-1,2,4-triazole], for which the IC50 at Axl (setting [2]) lay in the range of 1 to 10 µM.
Compound `Cc1cccc(C(=O)n2nc(Nc3cccc(OCC(=O)NCCO)c3)nc2N)c1` [compound 225, 5-amino-3-[3-((2-hydroxyethyl)aminocarbonylmethoxy)phenyl]amino-1-(3-methylphenyl)carbonyl-1H-1,2,4-triazole] yielded an IC50 against Axl (setting [1]) of 1 to 10 µM.
The compound `CC(=O)N(C)c1ccc(Nc2nc(N)n(C(=O)NC3CCCC3)n2)cc1` [compound 177, 3-[4-(acetyl(methyl)amino)phenyl]amino-5-amino-N-cyclopentyl-1H-1,2,4-triazole-1-carboxamide] registered an IC50 against Axl (Table 7, Hela cells, Axl antibody cross-linking stimulation, phospho-Akt chemiluminescence) above 20 µM.
